The text below walks through data of patent US20230324368A1, “Systems, Devices And Methods For Cell Analysis Using ChemFET Sensor Arrays” (Life Technologies Corporation, priority 2020, published 2023).

In data set [1] the test system is HEPG2 cells. The data set is described as follows: Label-free metabolic profiling (glucose restriction / glucose reintroduction) on ChemFET sensor array, HEPG2 cells. Format: cell-based, human. From the text:
FIG. 18A through FIG. 18B are graphs of data collected during metabolic profiling studies using HEPG2 cells (ATCC-HB-8065), while FIG. 19A and FIG. 19B are graphs of data collected during metabolic profiling studies using A673 cells (ECACC 85111504). FIG. 18A through FIG. 18B are temporal response graphs of counts equivalent to protons (CEP) in microvolts (μV) versus time. As will be described in more detail herein, the pharmacological dissection of metabolic profiling can be performed to understand the contribution of oxidative metabolism and glycolytic metabolism to metabolic profiling. Accordingly, chemical agents, such as oligomycin, antimycin A, rotenone and metformin can used to understand a contribution of oxidative metabolism to cellular response in a metabolic profiling study, while chemical agents, such as 2-deoxy-D-glucose, koningic acid, fasentin, and AM2394 can used to understand a contribution of glycolytic metabolism to cellular response in a metabolic profiling study.
The chip devices used in the studies were ISFET chip devices selective for sensing hydrogen ions, and were chip devices such as chip device 1 of 1 of Table 1. Given that the analyses performed were for metabolic profiling, chip devices with microwells were selected as depicted for chip device 500B of FIG. 5C. […]
(§1) Prior to seeding the devices with cells, each chip device in open format, such as open format chip device 500 of FIG. 2, and were soaked for 30 minutes with 70% ethanol in water, then rinsed with PBS and then rinsed twice with 1.5 mL of a cell culture medium, for example, Dulbecco's Modified […] Medium (DMEM; Gibco™ catalog #11995-065), Minimal Essential Medium (MEM; Gibco™ catalog #11095-080) or McCoy's 5A modified medium (Gibco™ catalog #12330-031). […] After rinsing with the cell culture medium, the devices were ready for addition to each device of a suspension of cells at a density between 5,000 to 30,000 cells in 1 to 1.5 mL of a cell culture medium, pH 7.4. […]

The test system of data set [2] is HEPG2 cells. Particulars: FCCP 100 μM; ISFET chip device 2 with microwells; not all cells showed efflux.
Description: A sensor array device of the present disclosure, such as sensor array device 500 of FIG. 2, has an open structure, thereby allowing the HEPG2 cells to be cultured on the sensor surface in ^˜1 mL of cell culture media. The device was sterilized with 70% Ethanol in water, rinsed and prepared with 100 μg/mL poly-D-lysine in phosphate buffered saline prior to adding cells to facilitate cell adhesion to a chip device surface as depicted in FIG. 5B.
For plating on the sensor array device, the HEPG2 cells were harvested from culture, resuspended at 2.5×10^5 cells per mL in complete cell culture medium (composed of Minimum Essential Medium, MEM, Thermo Fisher Scientific catalog number 11095080) plus 10% Fetal Calf Serum (FCS, Thermo Fisher Scientific Catalog number A3160401) and plated onto the sensor array device for overnight incubation in a cell culture incubator under standard conditions at 37° C. with 95% humidity and 5% carbon dioxide in room air atmosphere. […] Cells were then allowed to adhere to the prepared surface of the sensor array device and grow overnight or longer before microscopic analysis of morphology and qualitative assessment of viability. […]
Data set [3] has as its system A673 cells. The data set is described as follows: Control microscopy with calcein acetoxymethyl (AM) ester live-cell indicator, A673 cells. In kind it is cell-based. Conditions: 5 μM koningic acid treated cells, after experiment of FIG. 19B. Here is the method: (§2) After completion of each experiment represented by FIG. 18A and FIG. 18B for the HEPG2 cells, and by FIG. 19A and FIG. 19B for the A673 cells, control microscopy studies using calcein acetoxymethyl (AM) ester, a known fluorescent indicator of live cells, were performed. […] These control microscopy studies confirmed that what was observed using the ChemFET-based cell analysis system to perform the studies represented by FIG. 18A through FIG. 19B for both HEPG2 and A673 cells were observed using live cells.

The subject of data set [4] is HEPG2 cells. The experiment in a line: Control microscopy with calcein acetoxymethyl (AM) ester live-cell indicator, HEPG2 cells. Format: cell-based, human. Particulars: 5 μM koningic acid treated cells, after experiment of FIG. 18B. Here is the method:
as §2

The subject of data set [5] is A673 cells. The data set is described as follows: Label-free metabolic profiling (glucose restriction / glucose reintroduction) on ChemFET sensor array, A673 cells. In kind it is cell-based. Particulars: 5 μM koningic acid pretreatment during glucose restriction; 5 mM glucose reintroduction; FIG. 19A/19B.
Description: FIG. 18A through FIG. 18B are graphs of data collected during metabolic profiling studies using HEPG2 cells (ATCC-HB-8065), while FIG. 19A and FIG. 19B are graphs of data collected during metabolic profiling studies using A673 cells (ECACC 85111504). FIG. 18A through FIG. 18B are temporal response graphs of counts equivalent to protons (CEP) in microvolts (μV) versus time. As will be described in more detail herein, the pharmacological dissection of metabolic profiling can be performed to understand the contribution of oxidative metabolism and glycolytic metabolism to metabolic profiling. […]
as §1

Take `O=CC[C@@H](O)[C@H](O)[C@H](O)CO` [2-deoxy-D-glucose]: in the data set with HEPG2 cells [1] (50 mM 2-deoxy-D-glucose introduced at 371 seconds after oligomycin, control without koningic acid, FIG. 18A), the “averaged temporal response, counts equivalent to protons (CEP) versus time” value (“averaged temporal response … (CEP) versus time” below) was “attenuated”.
Regarding `N#CC(C#N)=NNc1ccc(OC(F)(F)F)cc1` [FCCP, carbonyl cyanide-4-(trifluoromethoxy) phenylhydrazone], the “cellular response observed in electroscopic image” value with HEPG2 cells [2] is given as “efflux of cellular contents”.
`CC(C)[C@H]1CC[C@@]2(CO2)[C@H]2C(=O)OCC(C(=O)O)=C[C@H]12` [koningic acid]: in the data set on HEPG2 cells [1] (5 μM koningic acid pretreatment during glucose restriction, two to three hours, then glucose, oligomycin, 2-deoxy-D-glucose, FIG. 18B), the “averaged temporal response … (CEP) versus time” value was “no change in the averaged signal”. In addition, the “acute toxicity, calcein staining profile versus control vehicle treated cultures” value in the data set on A673 cells [3] and with HEPG2 cells [4] was “no acute toxicity” in each case. Further, the “averaged temporal response (CEP) to glucose reintroduction with and without koningic acid” value in the data set on A673 cells [5] is “comparable to the results using HEPG2 cells”.
Regarding `CC[C@H]1/C=C/C=C/C[C@@H](C)[C@H](O)[C@@](C)(O)C(=O)[C@@H](C)[C@H](O)[C@@H](C)C(=O)[C@@H](C)[C@H](O)[C@@H](C)/C=C/C(=O)O[C@@H]2[C@H](C)[C@H](CC1)O[C@]1(CC[C@H](C)[C@H](C[C@@H](C)O)O1)[C@H]2C` [oligomycin], in the data set with HEPG2 cells [1] (1 μM oligomycin introduced at 295 seconds after glucose, control without koningic acid, FIG. 18A), the “averaged temporal response … (CEP) versus time” value was “potentiated”.
